The results in this text go back to a melting point compilation (Tetko et al.; mined from patent text by program, amines drawn as free bases though some values may be those of a salt).

Broadly, the melting point is the temperature of the solid-liquid transition. For the compound `CS(=O)Cc1ccc2oc([N+](=O)[O-])c(-c3ccccc3)c2c1` (stereo not given), the melting point was in the range of 162 to 165 °C. The value for `NC(=O)c1cccc(-c2noc(-c3ccccc3F)n2)c1` was 231 to 234 °C; that for `CCC1Oc2cccc3nc4c(c(c23)NC1=O)CCCC4` (stereo not given) was 182 to 183 °C; that for `COC(=O)c1ccc[nH]c1=O` was 148 to 151 °C.

As to `Cc1cc(N(C)CC(=O)N2CCN(Cc3ccccc3)CC2)ccc1Oc1ccc(NC(=O)c2ccc(C(F)(F)F)cc2)cn1`, the melting point lay within 112 to 113 °C. With `CC(C)OCC(=O)NC1CCN(CC23CC(c4ccccc42)c2ccc(Cl)cc23)CC1` (stereo not given), the melting point was 50 to 53 °C.

`CN1CCOC2c3cccc4[nH]cc(c34)CC21` (stereo not given) yielded a melting point of 175 to 177 °C. `O=C1CCCN1[C@@H]1c2ccccc2OCC[C@H]1O` (relative stereo) returned a melting point of 151 to 153 °C.

With `CC(C)(C)c1ccc(-c2nc3ccc([N+](=O)[O-])cc3c(=O)o2)cc1`, the melting point is 159 to 161 °C. In turn, `COc1cc(CCNC(=O)c2ccccc2)cc2c1OC(C)(C)C2` returned a melting point of 137 to 138 °C.

Compound `NC(=O)c1cc(Cl)c(F)c(Cl)c1F` had a melting point of 145 to 147 °C. In turn, `CC(C#N)(COc1ccc(Cl)cc1)NS(=O)(=O)Cc1ccccc1` (stereo not given) gave a melting point of 120 to 121 °C. The compound `CCOC(=O)Cc1csc(-c2cc3cccc(N(C)S(=O)(=O)c4cccs4)c3[nH]2)n1` had a melting point of 117 to 118 °C. For the compound `OC(CN1CCNC1=S)c1ccncc1` (stereo not given), the melting point is 204 °C. In turn, `O=C1NCC(c2ccc3[nH]c(-c4ccncc4)cc3c2)=NN1` had a melting point of 313 to 316 °C. `COC(=O)C1Cc2cc(-c3ccc(C(C)O)cc3)ccc2O1` (stereo not given) registered a melting point of 98 to 100 °C. Compound `CC=Cc1nc2c(C(F)(F)F)cccc2c(O)c1C(=O)Nc1nccs1` had a melting point of 265 °C. Consider `COC(=O)c1cc(N=Nc2ccc(S(=O)(=O)Cl)cc2)ccc1O`, for which the melting point was in the range of 137 to 138 °C. `O=CNC1Cc2ccc([N+](=O)[O-])cc2C1` (stereo not given) gave a melting point of 91 to 92 °C. The compound `CN1CC=C(CC(=O)N2c3ccccc3NC(=O)c3ccccc32)CC1` registered a melting point of 200 to 201 °C. `CCc1c(C(=O)C(N)=O)c2c(OCC(=O)O)cc3c(c2n1Cc1ccccc1)CCCC3` showed a melting point of 222 to 225 °C.

The compound `COC(=O)c1cscc1NC(=O)CCl` displayed a melting point of 98 to 100 °C. `COc1cc(CNC(=O)c2ccc3n2Cc2ccccc2N(C(=O)CSc2ccc(Br)cc2)C3)ccc1O` showed a melting point of 168 °C.

Turning to `COc1ccc(-c2nc(C)c(C(C)=O)[nH]2)cc1`, the melting point is 162 to 165 °C. The compound `CC1(C)COc2ccc(S(=O)(=O)n3c(Cc4ccccc4C(=O)O)cc4cc(Cl)ccc43)cc21` had a melting point of 190 °C. The compound `CC1(CCC(=O)CCCc2cccc([N+](=O)[O-])c2)C(=O)CCC1=O` gave a melting point of 81 to 83 °C. With `CCCC(CCC)C(=O)O[C@H]1C[C@H](O)C=C2C=C[C@H](C)[C@H](CC[C@@H]3C[C@@H](O)CC(=O)O3)[C@H]21`, the melting point lay in the range of 165 to 166 °C. Compound `c1cnc2ccc(Cn3nnc4ccc(-c5ccc6c(c5)OCO6)nc43)cc2c1` showed a melting point of 179 to 181 °C.

In turn, `Cc1nnc(-c2ccnc(NCc3cccnc3)c2)o1` had a melting point of 139 to 140 °C. Take `Cc1nc(-c2ccc(C(F)(F)F)cc2)sc1CCOc1ccc(CC(=O)O)cc1`: the melting point was 128 to 130 °C. Turning to `C=CCOc1cc(OCc2ccc3ccccc3c2)cc(C(=O)c2nccs2)c1`, the melting point fell in the range of 65 to 67 °C.

The compound `Cc1cn(C(C)(C)C(=O)N(C)C)nc1-c1ccc(Cl)cc1` registered a melting point of 122 to 124 °C. As for `CCCCCCCCCC(=O)C1C(=O)CC(C)OC1=O` (stereo not given), the melting point fell in the range of 62 to 63 °C. As for `CCOC(=O)c1cc(F)c2c(c1Cl)C(OCCF)CCS2(=O)=O` (stereo not given), the melting point was 87 to 89 °C. As to `CSc1cc(C)nc(SC)c1NC(=O)CCCCCCSc1nc2ccccc2[nH]1`, the melting point fell in the range of 189 to 192 °C.
